No end group written: not given here.
T1: human TAS1R2-WT/TAS1R3-L95P (Homo sapiens, UniProt Q7RTX0+Q8TE23, L95P)
T1 construct: expressed in transfected cells; host or cells: HEK293T stably expressing Gα16gust44
T1 sequence (Q8TE23 20-839): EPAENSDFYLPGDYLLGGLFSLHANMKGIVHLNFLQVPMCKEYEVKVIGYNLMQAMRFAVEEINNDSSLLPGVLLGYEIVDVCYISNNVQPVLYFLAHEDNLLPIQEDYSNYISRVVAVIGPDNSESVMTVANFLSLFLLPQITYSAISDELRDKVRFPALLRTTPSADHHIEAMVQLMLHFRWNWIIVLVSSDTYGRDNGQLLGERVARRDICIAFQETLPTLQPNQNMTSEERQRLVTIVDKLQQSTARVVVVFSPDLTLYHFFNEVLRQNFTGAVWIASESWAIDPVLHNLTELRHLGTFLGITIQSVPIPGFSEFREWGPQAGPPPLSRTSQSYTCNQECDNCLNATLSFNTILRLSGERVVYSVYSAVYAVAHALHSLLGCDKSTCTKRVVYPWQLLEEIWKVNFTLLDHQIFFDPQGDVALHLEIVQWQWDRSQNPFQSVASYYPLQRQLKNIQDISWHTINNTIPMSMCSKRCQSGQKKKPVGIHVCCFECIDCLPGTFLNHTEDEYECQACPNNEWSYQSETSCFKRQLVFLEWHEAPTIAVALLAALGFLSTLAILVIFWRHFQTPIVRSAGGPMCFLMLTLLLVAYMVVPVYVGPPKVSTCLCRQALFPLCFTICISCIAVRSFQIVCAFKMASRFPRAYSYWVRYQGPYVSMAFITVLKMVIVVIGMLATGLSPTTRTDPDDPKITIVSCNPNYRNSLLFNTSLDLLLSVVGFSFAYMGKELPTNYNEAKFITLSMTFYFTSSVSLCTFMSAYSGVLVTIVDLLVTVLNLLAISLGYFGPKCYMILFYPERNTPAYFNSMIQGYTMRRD
T1 sequence (Q7RTX0 21-852 L95P): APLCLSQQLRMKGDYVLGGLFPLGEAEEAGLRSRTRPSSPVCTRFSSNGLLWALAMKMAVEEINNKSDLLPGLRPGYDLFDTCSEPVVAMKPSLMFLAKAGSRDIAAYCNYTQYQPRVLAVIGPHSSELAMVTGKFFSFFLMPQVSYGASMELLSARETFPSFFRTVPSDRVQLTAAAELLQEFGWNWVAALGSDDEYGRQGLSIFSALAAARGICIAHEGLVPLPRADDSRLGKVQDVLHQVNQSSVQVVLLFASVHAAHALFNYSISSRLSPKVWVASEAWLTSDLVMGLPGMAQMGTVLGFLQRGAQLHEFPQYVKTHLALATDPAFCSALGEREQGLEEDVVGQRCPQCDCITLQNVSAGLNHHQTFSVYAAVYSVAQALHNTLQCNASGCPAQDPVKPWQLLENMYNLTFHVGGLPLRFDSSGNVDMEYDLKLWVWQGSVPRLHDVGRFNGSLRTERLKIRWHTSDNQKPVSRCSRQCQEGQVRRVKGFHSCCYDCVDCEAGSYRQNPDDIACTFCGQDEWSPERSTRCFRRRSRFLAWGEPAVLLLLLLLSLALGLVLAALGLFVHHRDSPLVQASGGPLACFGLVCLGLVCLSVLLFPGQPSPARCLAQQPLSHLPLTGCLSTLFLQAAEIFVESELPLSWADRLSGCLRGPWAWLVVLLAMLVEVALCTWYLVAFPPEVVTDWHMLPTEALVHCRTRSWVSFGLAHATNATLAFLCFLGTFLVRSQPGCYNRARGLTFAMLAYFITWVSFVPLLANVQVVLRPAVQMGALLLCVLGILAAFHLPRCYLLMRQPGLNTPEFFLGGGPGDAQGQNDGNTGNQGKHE


Biological target: T1, human TAS1R2-WT/TAS1R3-L95P
Test: Calcium mobilisation assay, TAS1R2-WT with TAS1R3 variant L95P
Type: cell-based
Conditions: for Max ΔF/F0: maximal signal amplitude; for Max ΔF/F0 / EC50: "-": no activation
Excerpt: The coding sequences for TAS1R2 and TAS1R3 were commercially synthesised, and the human codon was optimised for expression in human cells. The coding sequences of human TAS1R2 and TAS1R3 were subcloned and inserted into the mammalian expression vectors pcDNA6/myc-HisA and pcDNA4/myc-HisA (Invitrogen; Thermo Fisher Scientific; Illkirch, France) between the EcoRI and NotI restriction sites, generating the plasmids pcDNA6-TAS1R2 and pcDNA4-TAS1R3, respectively. To increase protein expression in mammalian cells, an upstream start codon was used, which was a sequence called MAX, corresponding to the QBI SP163 element also described in pcDNA4-HisMax (Invitrogen; Thermo Fisher Scientific; Illkirch, France). To measure the expression level of the receptor by immunohistochemistry, we used the FLAG sequence ([…]) in the C-terminal position, which encodes the FLAG tag epitope. SNP variants of TAS1R2 and TAS1R3 were constructed based on […], respectively, using site-directed mutagenesis (Genewiz; Leipzig, Germany).
The HEK293T cells were kindly provided by Jay P. Slack (Givaudan Flavors Corporation; Cincinnati, OH, USA). HEK293T cells stably transfected with Gα16gust44 [43, 67] were seeded in poly-D-lysine-coated clear-bottom black 96-well plates (0.35 × 10^5 cells/well) in high-glucose DMEM supplemented with 2 mM GlutaMAX, 10% dialysed foetal bovine serum with penicillin/streptomycin and G418 (400 μg/mL) at 37 °C and 6.3% CO2 in a humidified atmosphere as previously reported. […] As a negative control, HEK293T cells were mock-transfected with the empty expression vector. After a further 24 h of incubation, the HEK293T cells were washed with C1 buffer (130 mM NaCl, 5 mM KCl, 10 mM HEPES pH 7.4 and 2 mM CaCl2). The 96-well plates containing the cells were then stimulated with sweet-tasting compounds. […] Different concentration ranges were tested depending on the sweet compound injected. The Ca^2+ changes were expressed as fractional changes in fluorescent light intensity: ΔF/F = (F − F0)/F0, where F was the fluorescent light intensity at each point, and F0 was the value of emitted fluorescent light prior to stimulus application. To calculate dose–response relationships, the changes in fluorescence upon stimulus application were averaged, mock-subtracted and baseline-corrected. The dose–response data obtained were adjusted using a 4-parameter logistic equation. The half-maximal effective concentrations (EC50 values) and maximal signal amplitudes were calculated using SigmaPlot software (version 15.0) (Systat Software; San Jose, CA, USA).
For in vitro calcium mobilisation assay performed on hTAS1R2-SNPs, hTAS1R3-SNPs and mTAS1R3-I60T, 6 to 7 concentrations were tested for each sweet compound, plus buffer alone. All concentration–receptor combinations were measured in duplicate, and each experiment was repeated at least 4 times (8 wells/concentration). Results were expressed for each concentration as ΔF/F mean ± SEM and represented as dose–response curves.

R1 = Variant EC50/WT EC50 | Max ΔF/F0 | EC50 | Molecule
2.6 | 0.89 ± 0.01 | – | thaumatin
– | – | 27.4 ± 5.8 µM | thaumatin (protein, Eight disulfides, sweet-tasting plant protein, E957) ATFEIVNRCSYTVWAAASKGDAALDAGGRQLNSGESWTINVEPGTKGGKIWARTDCYFDDSGSGICKTGDCGGLLRCKRFGRPPTTLAEFSLNQYGKDYIDISNIKGFNVPMDFSPTTRGCRGVRCAADIVGQCPAKLKAPGGGCNDACTVFQTSEYCCTTGKCGPTEYSRFFKRLCPDAFSYVLDKPTTVTCPGSSNYRVTFCPTA

Further lines, the molecule ahead of its results:

Molecule | R1 = Variant EC50/WT EC50 | Max ΔF/F0 | EC50
C[C@H](CC[C@@H](O[C@@H]1O[C@H](CO[C@@H]2O[C@H](CO)[C@@H](O)[C@H](O)[C@H]2O)[C@@H](O)[C@H](O)[C@H]1O[C@@H]1O[C@H](CO)[C@@H](O)[C@H](O)[C@H]1O)C(C)(C)O)[C@H]1CC[C@@]2(C)[C@@H]3CC=C4[C@@H](CC[C@H](O[C@@H]5O[C@H](CO[C@@H]6O[C@H](CO)[C@@H](O)[C@H](O)[C@H]6O)[C@@H](O)[C@H](O)[C@H]5O)C4(C)C)[C@]3(C)[C@H](O)C[C@]12C [Mogroside V, mogroside V] | 8.4 | 0.08 | –
C=C(C)[C@@H]1CC=C(/C=N/O)CC1 [Perillartine, perillartine] | 2.5 | 0.14 ± 0.02 | 33.9 ± 2.8 µM
brazzein (QDKCKKVYENYPVSKCQLANQCNYDCKLDKHARSGECFYDEKRNLQCICDYCEY; ends and bridges not checked; cysteine pairing not given here; UniProt P56552 1-54, looked up) [sweet-tasting protein obtained by recombinant production using the yeast Pichia pastoris] | 19.3 | 0.10 ± 0.05 | –

— PMC11945486, “TAS1R2/TAS1R3 Single-Nucleotide Polymorphisms Affect Sweet Taste Receptor Activation by Sweeteners: The SWEET Project” (Nutrients, 2025)
